According to patent US10449168B2 (The University of Toledo, priority 2015, dated 2019):
Entries after “also recorded” stand apart in the source; their conditions may differ.

What was measured:
Assay type in all cases: biochemical
[1] = target: T1, Streptococcus pneumoniae aspartate semialdehyde dehydrogenase (spASADH) (Streptococcus pneumoniae, UniProt Q8DQ00); test: spASADH kinetic assay: reverse direction, NADPH absorbance at 340 nm; Ki from Dixon plot assuming competitive inhibition against ASA; settings: pH 8.6, r.t., 0.15 mM ASA, 1.5 mM NADP, 20 mM phosphate
T1 construct: homodimer from general knowledge
T1 sequence (Q8DQ00 1-358): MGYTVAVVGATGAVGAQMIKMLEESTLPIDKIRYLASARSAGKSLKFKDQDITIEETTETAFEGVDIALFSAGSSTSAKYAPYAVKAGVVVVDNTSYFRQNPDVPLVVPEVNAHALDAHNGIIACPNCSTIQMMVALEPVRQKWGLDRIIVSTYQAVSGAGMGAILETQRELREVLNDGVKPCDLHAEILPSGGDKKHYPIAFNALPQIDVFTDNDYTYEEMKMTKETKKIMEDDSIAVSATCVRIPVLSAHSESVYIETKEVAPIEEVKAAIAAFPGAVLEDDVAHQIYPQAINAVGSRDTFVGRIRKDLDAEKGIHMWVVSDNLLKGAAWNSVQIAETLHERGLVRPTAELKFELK

[2] = target: T2, Vibrio cholerae aspartate semialdehyde dehydrogenase (vcASADH) (Vibrio cholerae serotype O1, UniProt P23247); test: biochemical; settings: for inhibition / binding affinity for vcASADH (in words): relative to parent or neighbouring derivative
T2 construct: made in house
T2 sequence (P23247 whole entry): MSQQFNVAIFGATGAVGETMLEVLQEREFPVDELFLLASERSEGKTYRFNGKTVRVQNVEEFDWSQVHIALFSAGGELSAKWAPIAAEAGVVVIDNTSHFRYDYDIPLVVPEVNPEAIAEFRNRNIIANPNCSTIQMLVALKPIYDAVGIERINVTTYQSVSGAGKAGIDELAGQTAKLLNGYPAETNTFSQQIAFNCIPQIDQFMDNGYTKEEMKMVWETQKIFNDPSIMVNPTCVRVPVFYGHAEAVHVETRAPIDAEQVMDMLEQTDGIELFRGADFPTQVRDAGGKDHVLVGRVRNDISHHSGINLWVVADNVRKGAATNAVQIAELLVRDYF

[3] = target: Streptococcus pneumoniae aspartate semialdehyde dehydrogenase (spASADH) (Streptococcus pneumoniae, UniProt Q8DQ00); test: biochemical; settings: for inhibition / binding affinity for spASADH (in words): relative to parent or neighbouring derivative
[4] = target: Vibrio cholerae aspartate semialdehyde dehydrogenase (vcASADH); test: vcASADH kinetic assay: reverse direction, NADPH absorbance at 340 nm; Ki from Dixon plot assuming competitive inhibition against ASA; settings: pH 8.6, r.t., 0.3 mM ASA, 1.5 mM NADP, 20 mM phosphate
[5] = competitive vs ASA, 0.15 mM ASA, pH 8.6, read-out: Ki for spASADH

Row | Compound | inhibition / binding affinity for spASADH (in words) [3] | Ki ([1]; FIG. 5, Table 2) | Ki ([4]; FIG. 5, Table 2) | also measured
1 | O=C(O)CNCc1ccc(C(=O)O)c(C(=O)O)c1 [Compound 3, N-carboxymethyl-3,4-dicarboxybenzylamine] | two-fold stronger inhibitor; also recorded: high millimolar inhibitor |  |  | Ki ([1]; FIG. 4, Table 1): 246 ± 20 µM; Ki [2]: 500 µM; inhibition / binding affinity for vcASADH (in words) [2]: high millimolar inhibitor
2 | CN(CC(=O)O)Cc1cccc(C(=O)O)c1C(=O)O [Compound 9, N-methyl, N-carboxymethyl-2,3-dicarboxybenzylamine] |  |  |  | inhibition / binding affinity for vcASADH (in words) [2]: no inhibition; Ki [3, 5]: 1800 µM
3 | CC(=O)N(CC(=O)O)Cc1ccc(C(=O)O)c(C(=O)O)c1 [Compound 37, N-acetal-N-carboxymethyl-3,4-dicarboxybenzylamine] |  |  |  | Ki ([1]; FIG. 4, Table 1): 276 ± 16 µM; Ki ([4]; FIG. 4, Table 1): 655 ± 51 µM
4 | O=C(O)CN(Cc1ccc(C(=O)O)cc1)Cc1ccc(C(=O)O)c(C(=O)O)c1 [Compound 31, N-(4-carboxybenzyl)-N-carboxymethyl-3,4-dicarboxybenzylamine] | comparable affinity to that observed for the p-methylbenzyl derivative (23) | 72 ± 7 µM | 635 ± 55 µM | 
5 | C=CCN(CC(=O)O)Cc1ccc(C(=O)O)c(C(=O)O)c1 [Compound 11, N-allyl, N-carboxymethyl-3,4-dicarboxybenzylamine] |  |  |  | Ki ([1]; FIG. 4, Table 1): 303 ± 22 µM; Ki ([4]; FIG. 4, Table 1): 663 ± 36 µM
6 | O=C(O)CN(Cc1ccc(C(=O)O)c(C(=O)O)c1)Cc1ccccc1OC(F)(F)F [Compound 27, N-(2-trifluoromethyoxybenzyl)-N-carboxymethyl-3,4-dicarboxybenzylamine] | did not alter the affinity | 540 ± 32 µM | 708 ± 47 µM | inhibition / binding affinity for vcASADH (in words) [2]: did not alter the affinity
7 | O=C(O)CN(Cc1ccc(C(F)(F)F)cc1)Cc1ccc(C(=O)O)c(C(=O)O)c1 [Compound 26, N-(4-trifluoromethylbenzyl)-N-carboxymethyl-3,4-dicarboxybenzylamine] | two-fold additional improvement in binding affinity |  | 628 ± 48 µM | 
8 | Cc1cccc(CN(CC(=O)O)Cc2ccc(C(=O)O)c(C(=O)O)c2)c1 [Compound 22, N-(3-methylbenzyl)-N-carboxymethyl-3,4-dicarboxybenzylamine] | did not yield any improvement in affinity | 430 ± 22 µM | 690 ± 41 µM | 
9 | O=C(O)CN(Cc1ccccc1)Cc1ccc(C(=O)O)c(C(=O)O)c1 [Compound 13, N-benzyl, N-carboxymethyl-3,4-dicarboxybenzylamine] |  |  |  | Ki ([1]; FIG. 4, Table 1): 297 ± 14 µM; Ki ([4]; FIG. 4, Table 1): 696 ± 33 µM
10 | O=C(O)CN(Cc1ccc(C(F)(C(F)(F)F)C(F)(F)F)cc1)Cc1ccc(C(=O)O)c(C(=O)O)c1 [Compound 34, N-(4-(2-perfluoropropyl))-N-carboxymethyl-3,4-dicarboxybenzylamine] | low micromolar K value |  | 639 ± 37 µM | Ki [3]: 9 µM
11 | O=C(O)CN(Cc1ccc(C(F)(F)F)cc1)Cc1ccc(C(=O)O)c(C(=O)O)c1 [Compound 36, N-(4-trifluoromethylbenzyl)-N-carboxymethyl-3,4-dicarboxybenzylamine] | substantial affinity loss | 3800 ± 220 µM |  | 
12 | O=C(O)CCNCc1ccc(C(=O)O)c(C(=O)O)c1 [Compound 4, N-carboxyethyl-3,4-dicarboxybenzylamine] | substantial affinity loss |  |  | inhibition / binding affinity for vcASADH (in words) [2]: did not show appreciable inhibition; Ki [3, 5]: 2400 µM
13 | O=C(O)CN(CCN1CCOCC1)Cc1ccc(C(=O)O)c(C(=O)O)c1 [Compound 16, N-(ethylmorpholino)-N-carboxymethyl-3,4-dicarboxybenzylamine] | only a slight improvement |  |  | 
14 | O=C(O)CN(Cc1ccc(OC(F)(F)F)cc1)Cc1ccc(C(=O)O)c(C(=O)O)c1 [Compound 29, N-(4-trifluoromethoxybenzyl)-N-carboxymethyl-3,4-dicarboxybenzylamine] | two-fold additional improvement in binding affinity | 36 ± 6 µM | 663 ± 39 µM | 
15 | CN(CC(=O)O)Cc1ccc(C(=O)O)c(C(=O)O)c1 [Compound 10, N-methyl, N-carboxymethyl-3,4-dicarboxybenzylamine] |  |  |  | Ki ([1]; FIG. 4, Table 1): 296 ± 36 µM; Ki ([4]; FIG. 4, Table 1): 675 ± 54 µM
16 | O=C(O)CN(Cc1ccc(C(=O)O)c(C(=O)O)c1)c1ccc(-c2ccccc2)cc1 [Compound 17, N-(4-biphenyl)-N-carboxymethyl-3,4-dicarboxybenzylamine] | improved binding affinity |  |  | improved inhibition of spASADH relative to the parent benzyl derivative ([3]; relative to parent benzyl derivative): 25 fold; Ki ([4]; FIG. 4, Table 1): 634 ± 29 µM

Row | Compound | inhibition / binding affinity for spASADH (in words) [3] | Ki ([1]; FIG. 5, Table 2) | Ki ([4]; FIG. 5, Table 2) | also measured
17 | CC(C)(C)c1ccc(CN(CC(=O)O)Cc2ccc(C(=O)O)c(C(=O)O)c2)cc1 [Compound 33, N-(4-t-butylbenzyl)-N-carboxymethyl-3,4-dicarboxybenzylamine] | additional two-fold improvement |  | 648 ± 32 µM | selectivity for spASADH relative to vcASADH ([3]; Gram-positive spASADH over Gram-negative vcASADH): over 40 fold; Ki [3, 5]: 16 µM
18 | O=C(O)CN(Cc1cccc(OC(F)(F)F)c1)Cc1ccc(C(=O)O)c(C(=O)O)c1 [Compound 28, N-(3-trifluoromethoxybenzyl)-N-carboxymethyl-3,4-dicarboxybenzylamine] | did not alter the affinity | 427 ± 31 µM | 684 ± 35 µM | inhibition / binding affinity for vcASADH (in words) [2]: did not alter the affinity
19 | Cc1ccccc1CN(CC(=O)O)Cc1ccc(C(=O)O)c(C(=O)O)c1 [Compound 21, N-(2-methylbenzyl)-N-carboxymethyl-3,4-dicarboxybenzylamine] | did not yield any improvement in affinity | 524 ± 27 µM | 721 ± 46 µM | 
20 | O=C(O)CN(Cc1ccc(OC(F)F)cc1)Cc1ccc(C(=O)O)c(C(=O)O)c1 [Compound 30, N-(4-difluoromethoxybenzyl)-N-carboxymethyl-3,4-dicarboxybenzylamine] | reversed this improvement | 54 ± 5 µM | 698 ± 44 µM | 
21 | O=C(O)CN(Cc1ccc(C(=O)O)c(C(=O)O)c1)c1ccc2ccccc2c1 [Compound 15, N-(2-naphthyl)-N-carboxymethyl-3,4-dicarboxybenzylamine] | slightly worse inhibition |  |  | Ki ([1]; FIG. 4, Table 1): 329 ± 22 µM; Ki ([4]; FIG. 4, Table 1): 724 ± 47 µM
22 | O=C(O)CCN(Cc1ccc(Br)cc1)Cc1ccc(C(=O)O)c(C(=O)O)c1 [Compound 35, N-(4-bromobenzyl)-N-carboxyethyl-3,4-dicarboxybenzylamine] | substantial affinity loss | 3600 ± 230 µM |  | 
23 | O=C(O)CN(Cc1ccc(C(=O)O)c(C(=O)O)c1)Cc1ccccc1C(F)(F)F [Compound 24, N-(2-trifluoromethylbenzyl)-N-carboxymethyl-3,4-dicarboxybenzylamine] | did not alter the affinity | 509 ± 29 µM | 727 ± 60 µM | inhibition / binding affinity for vcASADH (in words) [2]: did not alter the affinity
24 | Cc1ccc(CN(CC(=O)O)Cc2ccc(C(=O)O)c(C(=O)O)c2)cc1 [Compound 23, N-(4-methylbenzyl)-N-carboxymethyl-3,4-dicarboxybenzylamine] |  | 63 ± 7 µM | 608 ± 42 µM | inhibition / binding affinity for vcASADH (in words) [2]: did not show any improved affinity
25 | O=C(O)CN(Cc1ccc(C=Cc2ccccc2)cc1)Cc1ccc(C(=O)O)c(C(=O)O)c1 [Compound 38, N-((4-(2-benzyl)vinyl)benzyl)-N-carboxymethyl-3,4-dicarboxybenzylamine] |  |  | 1100 ± 200 µM | 
26 | O=C(O)CN(Cc1cccc(Br)c1)Cc1ccc(C(=O)O)c(C(=O)O)c1 [Compound 19, N-(3-bromobenzyl)-N-carboxymethyl-3,4-dicarboxybenzylamine] | did not yield any improvement in affinity | 442 ± 29 µM | 665 ± 37 µM | 
27 | O=C(O)CN(Cc1ccc(C(=O)O)c(C(=O)O)c1)Cc1cccc2ccccc12 [Compound 14] | slightly worse inhibition |  |  | 
28 | N-acetonitrile, N-carboxymethyl-3,4-dicarboxybenzylamine [Compound 12] |  |  |  | Ki ([1]; FIG. 4, Table 1): 220 ± 14 µM; Ki ([4]; FIG. 4, Table 1): 498 ± 27 µM
29 | N-(1-naphthyl)-N-carboxymethyl-3,4-dicarboxybenzylamine [Compound 14] |  |  |  | Ki ([1]; FIG. 4, Table 1): 396 ± 42 µM; Ki ([4]; FIG. 4, Table 1): 749 ± 54 µM
30 | NC(=O)c1ccc(CN(CC(=O)O)Cc2ccc(C(=O)O)c(C(=O)O)c2)cc1 [Compound 32, N-(4-carboxamidebenzyl)-N-carboxymethyl-3,4-dicarboxybenzylamine] |  | 229 ± 32 µM | 649 ± 25 µM | loss of affinity ([3]; carboxamide vs p-carboxyl derivative (31)): 3 fold
31 | O=C(O)CN(Cc1ccc(C(=O)O)c(C(=O)O)c1)Cc1ccccc1Br [Compound 18, N-(2-bromobenzyl)-N-carboxymethyl-3,4-dicarboxybenzylamine] | did not yield any improvement in affinity | 529 ± 38 µM | 737 ± 49 µM | 
